Data as given in US20060069132A1, “Azolecarboxamide herbicides” (priority 2004, published 2006).
Read-outs that look alike come from different tables or passages of the source.

Tests used:
[1] = test system: barnyardgrass; assay: Test B pre-/postemergence herbicide test; format: in vivo, Echinochloa crus-galli; details: Echinochloa crus-galli; for pest or weed control at 125 g/ha: 125 g ai/ha; for pest or weed control at 500 g/ha: 500 g ai/ha
Method in brief: (§1)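 Response was scored visually 13 to 15 days after treatment against untreated greenhouse controls, 0 meaning no effect and 100 complete control. Formulations (solvent mixture plus surfactant) went onto soil after planting, onto foliage of 1- to 4-leaf plants, and onto 2-leaf plants in a flooded paddy set including rice and barnyardgrass.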

[2] = test system: Surinam grass; assay: Test B pre-/postemergence herbicide test; format: in vivo, Urochloa decumbens; details: Urochloa decumbens; for pest or weed control at 125 g/ha: 125 g ai/ha; for pest or weed control at 500 g/ha: 500 g ai/ha
Method in brief: (§2)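 Seeds were planted and treated preemergence with compounds formulated in a non-phytotoxic solvent mixture containing surfactant, while plants at the 1- to 4-leaf stage (2 to 18 cm) received postemergence sprays. Flooded paddy plants were grown to the 2-leaf stage. After 13 to 15 days in a greenhouse, injury was visually rated 0–100 against untreated controls.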

[3] = test system: cocklebur; assay: Test B pre-/postemergence herbicide test; format: in vivo, Xanthium strumarium; details: Xanthium strumarium; for pest or weed control at 125 g/ha: 125 g ai/ha; for pest or weed control at 500 g/ha: 500 g ai/ha
Method in brief: as §1

[4] = test system: corn; assay: Test B pre-/postemergence herbicide test; format: in vivo, Zea mays; details: Zea mays; for plant injury at 125 g/ha: 125 g ai/ha
Method in brief: as §2

[5] = test system: large crabgrass; assay: Test B pre-/postemergence herbicide test; format: in vivo, Digitaria sanguinalis; details: Digitaria sanguinalis; for pest or weed control at 125 g/ha: 125 g ai/ha; for pest or weed control at 500 g/ha: 500 g ai/ha
Method in brief: as §2

[6] = test system: giant foxtail; assay: Test B pre-/postemergence herbicide test; format: in vivo, Setaria faberi; details: Setaria faberi, 336 h; for pest or weed control at 125 g/ha: 125 g ai/ha; for pest or weed control at 500 g/ha: 500 g ai/ha
Method in brief: as §2

[7] = test system: lambsquarters; assay: Test B pre-/postemergence herbicide test; format: in vivo, Chenopodium album; details: Chenopodium album, 336 h; for pest or weed control at 125 g/ha: 125 g ai/ha; for pest or weed control at 500 g/ha: 500 g ai/ha
Method in brief: as §2

[8] = test system: morningglory; assay: Test B pre-/postemergence herbicide test; format: in vivo, Ipomoea coccinea; details: Ipomoea, 336 h; for pest or weed control at 125 g/ha: 125 g ai/ha; for pest or weed control at 500 g/ha: 500 g ai/ha
Method in brief: as §1

[9] = test system: pigweed; assay: Test B pre-/postemergence herbicide test; format: in vivo, Amaranthus retroflexus; details: Amaranthus retroflexus, 336 h; for pest or weed control at 125 g/ha: 125 g ai/ha; for pest or weed control at 500 g/ha: 500 g ai/ha
Method in brief: as §2

[10] = test system: velvetleaf; assay: Test B pre-/postemergence herbicide test; format: in vivo, Abutilon theophrasti; details: Abutilon theophrasti, 336 h; for pest or weed control at 125 g/ha: 125 g ai/ha; for pest or weed control at 500 g/ha: 500 g ai/ha
Method in brief: as §2

[11] = test system: blackgrass; assay: Test B postemergence herbicide test; format: in vivo, Alopecurus myosuroides; details: Alopecurus myosuroides, post-emergence, 336 h, postemergence, visual rating, scale 0 (no effect) to 100 (complete control), read-out: Blackgrass plant response rating
Method in brief: (§3)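 Visual control ratings, 0–100 versus untreated controls, taken after 13 to 15 days in the greenhouse. Blackgrass received a postemergence spray at the 1- to 4-leaf stage (2–18 cm); ducksalad, umbrella sedge and barnyardgrass were flooded-paddy treated at 2 leaves.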

[12] = test system: wild oat; assay: Test B postemergence herbicide test; format: in vivo, Avena fatua; details: Avena fatua, post-emergence, 336 h, postemergence, read-out: Oat, Wild plant response rating
Method in brief: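 Treated at 2-leaf (paddy) or 1–4-leaf, 2–18 cm (postemergence); greenhouse 13–15 d; visual score vs control, 0 none to 100 complete control; dash = not tested.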

[13] = test system: rice; assay: Test B flooded paddy test; format: in vivo, Oryza sativa; details: Oryza sativa, 336 h, 1000 g ai/ha, scale 0 to 100 (0 no effect, 100 complete control), read-out: Rice plant response rating
Method in brief: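 Visual ratings, 0 (no effect) to 100 (complete control), made versus controls after 13–15 d greenhouse. Paddy plants treated at 2-leaf stage; postemergence plants at 1- to 4-leaf stage, 2–18 cm tall.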

[14] = test system: small flower umbrella sedge; assay: Test B flooded paddy test; format: in vivo, Cyperus difformis; details: Cyperus difformis, 336 h, 1000 g ai/ha, scale 0 to 100 (0 no effect, 100 complete control), read-out: Sedge, Umbrella plant response rating
Method in brief: as §3

[15] = test system: ducksalad; assay: Test B flooded paddy test; format: in vivo, Heteranthera limosa; details: Heteranthera limosa, 336 h, 1000 g ai/ha, scale 0 to 100 (0 no effect, 100 complete control), read-out: Ducksalad plant response rating
Method in brief: as §3

[16] = post-emergence, postemergence, visual rating, scale 0 (no effect) to 100 (complete control), read-out: Barnyardgrass plant response rating
[17] = post-emergence, postemergence, visual rating, scale 0 (no effect) to 100 (complete control), read-out: Cocklebur plant response rating

CCN1N=C(C(C)(C)C)CC1C(=O)Nc1cc(C(=O)N(C)C)ccc1F (centres unmarked) [Compound 268, N-[5-[(dimethylamino)carbonyl]-2-fluorophenyl]-3-(1,1-dimethylethyl)-1-ethyl-4,5-dihydro-1H-pyrazole-5-carboxamide]
30%: pest or weed control at 500 g/ha [1, 16] | plant injury at 500 g/ha ([4]; post-emergence, postemergence, 500 g ai/ha, scale 0 to 100, 0 is no effect, 100 is complete control, read-out: Corn plant response rating) | pest or weed control at 125 g/ha ([11]; 125 g ai/ha) | pest or weed control at 125 g/ha ([12]; 125 g ai/ha, visual rating, scale 0 (no effect) to 100 (complete control))
100%: pest or weed control at 125 g/ha ([1]; pre-emergence, 0 = no effect, 100 = complete control, read-out: Barnyardgrass plant response rating (0 to 100 scale)) | pest or weed control at 500 g/ha ([1]; pre-emergence, visual rating, 0 = no effect, 100 = complete control, read-out: Plant response rating, Barnyardgrass) | pest or weed control at 500 g/ha ([2]; pre-emergence, visual rating, 0 = no effect, 100 = complete control, read-out: Plant response rating, Surinam Grass) | pest or weed control at 125 g/ha ([5]; pre-emergence, 0 = no effect, 100 = complete control, read-out: Crabgrass, Large plant response rating (0 to 100 scale)) | pest or weed control at 500 g/ha ([5]; pre-emergence, visual rating, 0 = no effect, 100 = complete control, read-out: Plant response rating, Crabgrass, Large) | pest or weed control at 125 g/ha ([6]; pre-emergence, 0 = no effect, 100 = complete control, read-out: Foxtail, Giant plant response rating (0 to 100 scale)) | pest or weed control at 500 g/ha ([6]; pre-emergence, visual rating, 0 = no effect, 100 = complete control, read-out: Plant response rating, Foxtail, Giant) | pest or weed control at 125 g/ha ([7]; pre-emergence, 0 = no effect, 100 = complete control, read-out: Lambsquarters plant response rating (0 to 100 scale)) | pest or weed control at 500 g/ha ([7]; pre-emergence, visual rating, 0 = no effect, 100 = complete control, read-out: Plant response rating, Lambsquarters) | pest or weed control at 125 g/ha ([9]; pre-emergence, 0 = no effect, 100 = complete control, read-out: Pigweed plant response rating (0 to 100 scale)) | pest or weed control at 500 g/ha ([9]; pre-emergence, visual rating, 0 = no effect, 100 = complete control, read-out: Plant response rating, Pigweed) | pest or weed control at 125 g/ha ([10]; pre-emergence, 0 = no effect, 100 = complete control, read-out: Velvetleaf plant response rating (0 to 100 scale)) | pest or weed control at 500 g/ha ([10]; pre-emergence, visual rating, 0 = no effect, 100 = complete control, read-out: Plant response rating, Velvetleaf)
80%: pest or weed control at 125 g/ha ([2]; pre-emergence, 0 = no effect, 100 = complete control, read-out: Surinam Grass plant response rating (0 to 100 scale)) | pest or weed control at 125 g/ha ([3]; pre-emergence, 0 = no effect, 100 = complete control, read-out: Cocklebur plant response rating (0 to 100 scale)) | plant injury at 125 g/ha ([4]; pre-emergence, 0 = no effect, 100 = complete control, read-out: Corn plant response rating (0 to 100 scale)) | pest or weed control at 1000 g/ha [14]
90%: pest or weed control at 500 g/ha ([3]; pre-emergence, visual rating, 0 = no effect, 100 = complete control, read-out: Plant response rating, Cocklebur) | Corn plant response rating (crop injury, 0 = no effect, 100 = complete kill) at 500 g/ha ([4]; pre-emergence, 500 g ai/ha, visual rating, 0 = no effect, 100 = complete control) | plant injury at 1000 g/ha [13] | pest or weed control at 1000 g/ha [15]
0%: pest or weed control at 125 g/ha [1, 16] | pest or weed control at 125 g/ha ([5]; post-emergence, postemergence, visual rating, scale 0 (no effect) to 100 (complete control), read-out: Crabgrass, Large plant response rating) | pest or weed control at 125 g/ha ([8]; pre-emergence, 0 = no effect, 100 = complete control, read-out: Morningglory plant response rating (0 to 100 scale))
20%: pest or weed control at 125 g/ha [3, 17] | plant injury at 125 g/ha ([4]; post-emergence, postemergence, visual rating, scale 0 (no effect) to 100 (complete control), read-out: Corn plant response rating) | pest or weed control at 500 g/ha ([5]; post-emergence, postemergence, scale 0 to 100, 0 is no effect, 100 is complete control, read-out: Crabgrass, Large plant response rating) | pest or weed control at 500 g/ha ([6]; post-emergence, postemergence, scale 0 to 100, 0 is no effect, 100 is complete control, read-out: Foxtail, Giant plant response rating) | pest or weed control at 500 g/ha ([8]; post-emergence, postemergence, scale 0 to 100, 0 is no effect, 100 is complete control, read-out: Morningglory plant response rating) | pest or weed control at 500 g/ha ([8]; pre-emergence, visual rating, 0 = no effect, 100 = complete control, read-out: Plant response rating, Morningglory) | pest or weed control at 125 g/ha ([9]; post-emergence, postemergence, visual rating, scale 0 (no effect) to 100 (complete control), read-out: Pigweed plant response rating) | pest or weed control at 125 g/ha ([10]; post-emergence, postemergence, visual rating, scale 0 (no effect) to 100 (complete control), read-out: Velvetleaf plant response rating)
10%: pest or weed control at 125 g/ha ([2]; post-emergence, postemergence, visual rating, scale 0 (no effect) to 100 (complete control), read-out: Surinam Grass plant response rating) | pest or weed control at 125 g/ha ([6]; post-emergence, postemergence, visual rating, scale 0 (no effect) to 100 (complete control), read-out: Foxtail, Giant plant response rating) | pest or weed control at 125 g/ha ([8]; post-emergence, postemergence, visual rating, scale 0 (no effect) to 100 (complete control), read-out: Morningglory plant response rating)
50%: pest or weed control at 500 g/ha ([2]; post-emergence, postemergence, scale 0 to 100, 0 is no effect, 100 is complete control, read-out: Surinam Grass plant response rating) | pest or weed control at 500 g/ha [3, 17] | pest or weed control at 500 g/ha ([9]; post-emergence, postemergence, scale 0 to 100, 0 is no effect, 100 is complete control, read-out: Pigweed plant response rating) | pest or weed control at 500 g/ha ([11]; 500 g ai/ha) | pest or weed control at 500 g/ha ([12]; 500 g ai/ha, scale 0 to 100, 0 is no effect, 100 is complete control)
70%: pest or weed control at 500 g/ha ([7]; post-emergence, postemergence, scale 0 to 100, 0 is no effect, 100 is complete control, read-out: Lambsquarters plant response rating)
60%: pest or weed control at 125 g/ha ([7]; post-emergence, postemergence, visual rating, scale 0 (no effect) to 100 (complete control), read-out: Lambsquarters plant response rating) | pest or weed control at 500 g/ha ([10]; post-emergence, postemergence, scale 0 to 100, 0 is no effect, 100 is complete control, read-out: Velvetleaf plant response rating)
